One data set deals with T1, Wee-1 kinase (Homo sapiens, UniProt P30291).
T1 construct: purchased Invitrogen PV3817
The data set is described as follows: Measurement of Wee-1 kinase activity (ADP-Glo luminescent kit). The class given is biochemical. The method, then:
Method 1: Measurement of Wee-1 Kinase Activity
In the measurement of Wee-1 activity, a commercial peptide Poly(Lys Tyr (4:1)) hydrobromide was purchased from Sigma Aldrich and used as the substrate. Activated Wee-1 kinase was purchased from Invitrogen (PV3817) and an ADP-Glo luminescent kit was purchased from Promega.
All reactions took place in […] volumes in reaction buffer containing 40 mM Tris-HCl and 20 mM magnesium chloride, supplemented with 0.1 mg/mL bovine serum albumin and 2 mM DTT. Compounds were serially diluted in buffer and 5 μL of each concentration pipetted into a white 384 well plate (Sigma Aldrich M6186). A 5 μL aliquot of the Wee-1 enzyme was added to each well and the plate centrifuged for 1 min to ensure mixing of the enzyme and inhibitor.
The plate was incubated at room temperature for 30 minutes before the addition of 2.0 μg/mL of substrate and 30 μM ATP in a 5 μL aliquot. The plate was centrifuged for one minute and incubated for 1 h at RT.
15 µL of ADP-Glo stop reagent was added to each well to quench the reaction and deplete unconverted ATP. The plate was incubated for a further 40 min in the dark at RT.
30 μL of ADP-Glo kinase detection reagent was added to each well, converting ADP to ATP, catalysing the generation of luciferin by luciferase. The plate was shaken for 1 min, and incubated in the dark for an additional hour.
Luminescence from each well was detected using the Biotek Synergy4 HD plate reader and the percentage inhibition of kinase activity calculated for each inhibitor tested. Positive (kinase only) and negative (no kinase) controls were added to each plate to ensure specific interaction of kinase and inhibitor. The IC50 concentration for each inhibitor was calculated by plotting the percentage kinase inhibition against concentration of inhibitor and the curve generated by non-linear regression fitting.

The nature of data set [1]: CLint estimates using human liver microsomes (Method 4). The following applies: pH 7.4, 1 μM compound, read-out: Mics - CLint (HLM CLint). The class given is in vitro ADME. As for the experimental part: Method 4: Determination of CLint Estimates Using Human liver microsomes Test compounds (final concentration=1 μM; final DMSO concentration=0.1%) were incubated in 0.1 M phosphate buffer pH 7.4 with human liver microsomes (0.5 mg of protein/mL) at 37° C. Reactions were started by addition of NADPH in 0.1 M phosphate buffer pH 7.4 (final concentration 1 mM). 40 μL aliquots were removed at 2, 5, 10, 15, 20, 30, 40 and 50 min. Reactions were quenched in 80 μL of ice-cold methanol. Samples were subsequently frozen overnight then centrifuged at 3500 rpm for 20 min at 4° C. The supernatants were removed and transferred into analytical plates and analysed by LC/MS/MS. LC/MS/MS Method: All samples were analysed on a Waters Acquity I-Class coupled to a Waters Xevo TQD mass spectrometer. A Waters BEH C18 2.1×50 mm 1.7 μm column was used and mobile phases were water and methanol containing 0.1% formic acid as modifier. Analysis was by multiple reaction monitoring and conditions were optimised for each test compound. Data Analyses: From a plot of 1n peak area against time, the gradient of the line is determined. Subsequently, half-life and intrinsic clearance are calculated using the following equations. [formula] [formula] [formula] where V=Incubation volume (μL)/number of cells Method 5: Determination of Kinetic Solubility (in PBS Buffer)

pIC50: −log10 of the molar value.

Usually pIC50 stands for −log10 of the IC50, conventionally taken in molar units.

T1 sequence (P30291 whole entry): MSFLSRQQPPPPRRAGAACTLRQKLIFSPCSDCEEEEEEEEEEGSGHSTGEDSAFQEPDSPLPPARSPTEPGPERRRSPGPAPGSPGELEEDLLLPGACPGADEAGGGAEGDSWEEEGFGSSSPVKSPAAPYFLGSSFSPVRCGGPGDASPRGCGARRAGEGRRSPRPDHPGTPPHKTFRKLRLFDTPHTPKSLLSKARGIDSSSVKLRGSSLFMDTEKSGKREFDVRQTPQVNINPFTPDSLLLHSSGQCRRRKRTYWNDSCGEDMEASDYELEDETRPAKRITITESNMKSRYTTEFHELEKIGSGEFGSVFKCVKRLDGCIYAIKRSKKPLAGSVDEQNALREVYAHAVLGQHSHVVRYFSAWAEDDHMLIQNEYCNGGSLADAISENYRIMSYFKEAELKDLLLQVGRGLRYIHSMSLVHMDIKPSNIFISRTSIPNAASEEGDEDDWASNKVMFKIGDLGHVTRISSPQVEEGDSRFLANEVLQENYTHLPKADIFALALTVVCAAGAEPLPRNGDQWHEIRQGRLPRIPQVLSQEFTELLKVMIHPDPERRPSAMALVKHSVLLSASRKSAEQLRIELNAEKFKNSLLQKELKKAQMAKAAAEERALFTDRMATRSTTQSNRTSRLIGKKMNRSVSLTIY

Take `C[C@@H]1CN(c2ccc(Nc3ncc4c(n3)N(C)CN(c3c(Cl)cccc3Cl)C4=O)cc2C(F)F)CCN1` [Example 139, (R)-3-(2,6-dichlorophenyl)-7-((3-(difluoromethyl)-4-(3-methylpiperazin-1-yl)phenyl)amino)-1-methyl-2,3-dihydropyrimido[4,5-d]pyrimidin-4(1H)-one]: the pIC50 on Wee-1 kinase is 7.00 to 8.00. Further, the microsomal CLint at 1 μM in data set [1] was 15 to 50 µL/min/mg. In the case of `CN1CN(c2c(Cl)cccc2Cl)C(=O)c2cnc(Nc3ccc(OC4CCNCC4)cc3)nc21` [Example 87, 3-(2,6-dichlorophenyl)-1-methyl-7-((4-(piperidin-4-yloxy)phenyl)amino)-2,3-dihydropyrimido[4,5-d]pyrimidin-4(1H)-one], the pIC50 at Wee-1 kinase was 7.00 to 8.00. In addition, the microsomal CLint at 1 μM in data set [1] was ≤ 15 µL/min/mg.

As for `CN1CN(c2c(Cl)cccc2Cl)C(=O)c2cnc(Nc3ccc(N4CCS(=O)(=O)CC4)cc3)nc21` [Example 42, 3-(2,6-dichlorophenyl)-7-((4-(1,1-dioxidothiomorpholino)phenyl)amino)-1-methyl-2,3-dihydropyrimido[4,5-d]pyrimidin-4(1H)-one], on Wee-1 kinase, the pIC50 was 7.00 to 8.00. Moreover, the microsomal CLint at 1 μM in data set [1] was 15 to 50 µL/min/mg. For the molecule `CCN1CCN(c2ccc(Nc3ncc4c(n3)N(C)CN(c3ccccc3Cl)C4=O)cc2CO)CC1` [Example 113, 3-(2-chlorophenyl)-7-((4-(4-ethylpiperazin-1-yl)-3-(hydroxymethyl)phenyl)amino)-1-methyl-2,3-dihydropyrimido[4,5-d]pyrimidin-4(1H)-one], the pIC50 at Wee-1 kinase was 7.00 to 8.00. Moreover, the microsomal CLint at 1 μM in data set [1] is 15 to 50 µL/min/mg. Regarding `C[C@@H]1CN(c2ccc(Nc3ncc4c(n3)N(C)CN(c3c(Cl)cccc3Cl)C4=O)cc2)CCN1C` [Example 32, (R)-3-(2,6-dichlorophenyl)-7-((4-(3,4-dimethylpiperazin-1-yl)phenyl)amino)-1-methyl-2,3-dihydropyrimido[4,5-d]pyrimidin-4(1H)-one], the pIC50 at Wee-1 kinase was 7.00 to 8.00. In addition, in data set [1], the microsomal CLint at 1 μM was 15 to 50 µL/min/mg. As to `COCc1cc(Nc2ncc3c(n2)N(C)CN(c2ccccc2Cl)C3=O)ccc1N1CCNCC1` [Example 108, 3-(2-chlorophenyl)-7-((3-(methoxymethyl)-4-(piperazin-1-yl)phenyl)amino)-1-methyl-2,3-dihydropyrimido[4,5-d]pyrimidin-4(1H)-one], the pIC50 on Wee-1 kinase is 7.00 to 8.00. Further, the microsomal CLint at 1 μM in data set [1] was ≤ 15 µL/min/mg. As for `CN1CN(c2c(Cl)cccc2Cl)C(=O)c2cnc(Nc3ccc(N4CCN(CCO)CC4)cc3)nc21` [Example 116, 3-(2,6-dichlorophenyl)-7-((4-(4-(2-hydroxyethyl)piperazin-1-yl)phenyl)amino)-1-methyl-2,3-dihydropyrimido[4,5-d]pyrimidin-4(1H)-one], the pIC50 at Wee-1 kinase was 7.00 to 8.00. Moreover, the microsomal CLint at 1 μM in data set [1] is 15 to 50 µL/min/mg. In the case of `CN1CN(c2c(Cl)cccc2Cl)C(=O)c2cnc(Nc3ccc(N4CCN(C)[C@@H](CO)C4)cc3)nc21` [Example 34, (R)-3-(2,6-dichlorophenyl)-7-((4-(3-(hydroxymethyl)-4-methylpiperazin-1-yl)phenyl)amino)-1-methyl-2,3-dihydropyrimido[4,5-d]pyrimidin-4(1H)-one], the pIC50 at Wee-1 kinase is 7.00 to 8.00. In data set [1], the microsomal CLint at 1 μM is 15 to 50 µL/min/mg. As for `CC(=O)N1CCN(c2ccc(Nc3ncc4c(n3)N(C)CN(c3c(Cl)cccc3Cl)C4=O)cc2CN2CCCC2)CC1` [Example 138, 7-((4-(4-acetylpiperazin-1-yl)-3-(pyrrolidin-1-ylmethyl)phenyl)amino)-3-(2,6-dichlorophenyl)-1-methyl-2,3-dihydropyrimido[4,5-d]pyrimidin-4(1H)-one], the pIC50 at Wee-1 kinase was ≥ 8.00. For the same molecule, in data set [1], the microsomal CLint at 1 μM was ≤ 15 µL/min/mg. Taken in the same sequence, the figures for `C[C@@H]1CN(c2ccc(Nc3ncc4c(n3)N(C)CN(c3c(Cl)cccc3Cl)C4=O)cc2)[C@H](C)CN1` [Example 79, 3-(2,6-dichlorophenyl)-7-((4-((2R,5R)-2,5-dimethylpiperazin-1-yl)phenyl)amino)-1-methyl-2,3-dihydropyrimido[4,5-d]pyrimidin-4(1H)-one] were 7.00 to 8.00 and 15 to 50 µL/min/mg. With `C[C@@H]1CN(c2ccc(Nc3ncc4c(n3)N(C)CN(c3ccccc3Cl)C4=O)cc2)[C@@H](C)CN1` [Example 111, 3-(2-chlorophenyl)-7-((4-((2S,5R)-2,5-dimethylpiperazin-1-yl)phenyl)amino)-1-methyl-2,3-dihydropyrimido[4,5-d]pyrimidin-4(1H)-one], on Wee-1 kinase, the pIC50 is 7.00 to 8.00. Further, the microsomal CLint at 1 μM in data set [1] was ≤ 15 µL/min/mg. As for `CN1CN(c2c(Cl)cccc2Cl)C(=O)c2cnc(Nc3ccc(N4CC5(CNC5)C4)cc3)nc21` [Example 51, 7-((4-(2,6-diazaspiro[3.3]heptan-2-yl)phenyl)amino)-3-(2,6-dichlorophenyl)-1-methyl-2,3-dihydropyrimido[4,5-d]pyrimidin-4(1H)-one], the pIC50 at Wee-1 kinase was 7.00 to 8.00. The same measure, in the same setting: the value for `CN1CN(c2c(F)cccc2Cl)C(=O)c2cnc(Nc3cccc(CO)c3)nc21` [Example 56, 3-(2-chloro-6-fluorophenyl)-7-((3-(hydroxymethyl)phenyl)amino)-1-methyl-2,3-dihydropyrimido[4,5-d]pyrimidin-4(1H)-one] was ≤ 7.00.

As for `COCc1cc(Nc2ncc3c(n2)N(C)CN(c2c(C)cccc2Cl)C3=O)ccc1N1CCN[C@H](C)C1` [Example 101, (R)-3-(2-chloro-6-methylphenyl)-7-((3-(methoxymethyl)-4-(3-methylpiperazin-1-yl)phenyl)amino)-1-methyl-2,3-dihydropyrimido[4,5-d]pyrimidin-4(1H)-one], the pIC50 on Wee-1 kinase is 7.00 to 8.00. As for `Cc1cccc(Cl)c1N1CN(C)c2nc(Nc3ccc(N4CCNCC4)cc3)ncc2C1=O` [Example 92, 3-(2-chloro-6-methylphenyl)-1-methyl-7-((4-(piperazin-1-yl)phenyl)amino)-2,3-dihydropyrimido[4,5-d]pyrimidin-4(1H)-one], the pIC50 on Wee-1 kinase was 7.00 to 8.00.

`COc1cc(Nc2ncc3c(n2)N(C)CN(c2c(Cl)cccc2Cl)C3=O)ccc1N1C[C@@H]2C[C@H]1CN2` [Example 82, 7-((4-((1S,4S)-2,5-diazabicyclo[2.2.1]heptan-2-yl)-3-methoxyphenyl)amino)-3-(2,6-dichlorophenyl)-1-methyl-2,3-dihydropyrimido[4,5-d]pyrimidin-4(1H)-one]: the negative logarithm of the IC50 (pIC50) at Wee-1 kinase is 7.00 to 8.00. `CN1CN(c2c(Cl)cccc2Cl)C(=O)c2cnc(Nc3ccc(N4CCOCC4)c(CO)c3)nc21` [Example 73, 3-(2,6-dichlorophenyl)-7-((3-(hydroxymethyl)-4-morpholinophenyl)amino)-1-methyl-2,3-dihydropyrimido[4,5-d]pyrimidin-4(1H)-one]: on Wee-1 kinase, the pIC50 is 7.00 to 8.00. Consider `C[C@@H]1CN(c2ccc(Nc3ncc4c(n3)N(C)CN(c3ccccc3Cl)C4=O)cc2)CCN1` [Example 94, (R)-3-(2-chlorophenyl)-1-methyl-7-((4-(3-methylpiperazin-1-yl)phenyl)amino)-2,3-dihydropyrimido[4,5-d]pyrimidin-4(1H)-one], for which, on Wee-1 kinase, the negative logarithm of the IC50 (pIC50) is 7.00 to 8.00. In the case of `C[C@@H]1CN(c2ccc(Nc3ncc4c(n3)N(C)CN(c3c(Cl)cccc3Cl)C4=O)cc2)C[C@H](C)N1C` [Example 52, 3-(2,6-dichlorophenyl)-1-methyl-7-((4-((3R,5S)-3,4,5-trimethylpiperazin-1-yl)phenyl)amino)-2,3-dihydropyrimido[4,5-d]pyrimidin-4(1H)-one], the pIC50 at Wee-1 kinase was 7.00 to 8.00.

The values above are taken from patent publication US9850247B2 (Almac Discovery Limited, priority 2013, dated 2017).
